Values quoted from earlier work as cited in US20200319065A1, “STABLE DITHIZONE SOLUTIONS AND FORMULATIONS AND METHODS FOR THEIR USE” (CITY OF HOPE, priority 2019, published 2020).

- solubility in organic solvents (ethanol, chloroform and DMSO): solubilizes partially
- solubility in water (water): relatively insoluble
SMILES: S=C(N=Nc1ccccc1)NNc1ccccc1 [DTZ, Dithizone]
